# Laboratory results published in ChEMBL document CHEMBL1201862, “PubChem BioAssay data set” (2004).
#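 Five compound concentrations were applied to cells in 96-well plates for 48 hours; endpoints were derived by simple linear interpolation of the resulting dose-response curve. GI50 marks 50% less growth.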 Activity calls are given as the source filed them. Rule as the data show it: active = GI50 up to about 1.1 µM and inactive = higher.
# Tests used:
# Experiment in all cases: DTP human tumour cell line panel, 48 h
# SN12C = system: SN12C
# SK-MEL-2 = system: SK-MEL-2
# EKVX = system: EKVX
# 786-0 = system: 786-0
# NCI-H23 = system: NCI-H23
# OVCAR-3 = system: OVCAR-3
# T47D = system: T47D
# COLO 205 = system: COLO 205
# Malme-3M = system: Malme-3M
# NCI-H522 = system: NCI-H522
# ACHN = system: ACHN
# K562 = system: K562
# IGROV-1 = system: IGROV-1
# TK-10 = system: TK-10
# HT-29 = system: HT-29
# M14 = system: M14
# KM12 = system: KM12
# LOX IMVI = system: LOX IMVI
# HCC 2998 = system: HCC 2998
# BT-549 = system: BT-549
SMILES,GI50 (SN12C),GI50 (SK-MEL-2),GI50 (EKVX),GI50 (786-0),GI50 (NCI-H23),GI50 (OVCAR-3),GI50 (T47D),GI50 (COLO 205),GI50 (Malme-3M),GI50 (NCI-H522),GI50 (ACHN),GI50 (K562),GI50 (IGROV-1),GI50 (TK-10),GI50 (HT-29),GI50 (M14),GI50 (KM12),GI50 (LOX IMVI),GI50 (HCC 2998),GI50 (BT-549)
CC(C)(C)C(=O)C(C#N)C(=O)C(C)(C)C,> 100 µM (inactive),> 100 µM (inactive),> 100 µM (inactive),> 100 µM (inactive),> 100 µM (inactive),> 100 µM (inactive),> 100 µM (inactive),> 100 µM (inactive),> 100 µM (inactive),> 100 µM (inactive),> 100 µM (inactive),> 100 µM (inactive),> 100 µM (inactive),> 100 µM (inactive),> 100 µM (inactive),> 100 µM (inactive),> 100 µM (inactive),> 100 µM (inactive),> 100 µM (inactive),
COc1ccccc1CC(=O)C(O)(C(F)(F)F)C(F)(F)F,> 100 µM (inactive),> 100 µM (inactive),> 100 µM (inactive),> 100 µM (inactive),> 100 µM (inactive),> 100 µM (inactive),> 100 µM (inactive),> 100 µM (inactive),> 100 µM (inactive),> 100 µM (inactive),> 100 µM (inactive),> 100 µM (inactive),> 100 µM (inactive),> 100 µM (inactive),> 100 µM (inactive),> 100 µM (inactive),> 100 µM (inactive),> 100 µM (inactive),> 100 µM (inactive),
CCCCOC(=O)N[C@H]1CCc2cc(OC)c(OC)c(OC)c2-c2ccc(SC)c(=O)cc21,< 0.01 µM (active),< 0.01 µM (active),16.3 µM (inactive),< 0.01 µM (active),< 0.01 µM (active),< 0.01 µM (active),18.1 µM (inactive),< 0.01 µM (active),< 0.01 µM (active),< 0.01 µM (active),< 0.0114 µM (active),< 0.0369 µM (active),0.0101 µM (active),0.198 µM (active),< 0.01 µM (active),< 0.01 µM (active),< 0.01 µM (active),< 0.01 µM (active),< 0.01 µM (active),
CC(=O)ON(C(C)=O)c1ccc(-c2nc3ccccc3s2)cc1C,31 µM (inactive),> 100 µM (inactive),2.77 µM (inactive),60 µM (inactive),52.7 µM (inactive),25.8 µM (inactive),,20.5 µM (inactive),> 100 µM (inactive),38.5 µM (inactive),32.6 µM (inactive),45.2 µM (inactive),13 µM (inactive),2.96 µM (inactive),32 µM (inactive),59 µM (inactive),47.4 µM (inactive),37.4 µM (inactive),67.6 µM (inactive),70.5 µM (inactive)
Cc1ccc(S(=O)(=O)Nn2c(S)c(C#N)c(-c3ccc(Cl)cc3)c(C#N)c2=O)cc1,25.7 µM (inactive),56.8 µM (inactive),32.9 µM (inactive),32.6 µM (inactive),30 µM (inactive),53.6 µM (inactive),,35.6 µM (inactive),30.8 µM (inactive),16.6 µM (inactive),31.6 µM (inactive),38.6 µM (inactive),20.6 µM (inactive),25.6 µM (inactive),,38.1 µM (inactive),36.2 µM (inactive),29.9 µM (inactive),38.8 µM (inactive),17.3 µM (inactive)
Cc1noc(C)c1/N=N/c1ccc2nonc2c1N,> 100 µM (inactive),> 100 µM (inactive),2.66 µM (inactive),42.4 µM (inactive),46.5 µM (inactive),> 100 µM (inactive),> 100 µM (inactive),> 100 µM (inactive),> 100 µM (inactive),,> 100 µM (inactive),> 10 µM (inactive),> 100 µM (inactive),58.7 µM (inactive),> 100 µM (inactive),> 100 µM (inactive),> 100 µM (inactive),> 100 µM (inactive),> 100 µM (inactive),
Cn1c(=O)c(Br)c(C=O)n(CCO[N+](=O)[O-])c1=O,4.34 µM (inactive),3.59 µM (inactive),2.78 µM (inactive),5.14 µM (inactive),5.7 µM (inactive),,1.87 µM (inactive),5.92 µM (inactive),,,3.71 µM (inactive),2.66 µM (inactive),,3.86 µM (inactive),,3.99 µM (inactive),,2.14 µM (inactive),15.4 µM (inactive),
CC12CC(=O)Nc3ccccc3N1C(c1ccccc1)=NO2 (stereo not drawn),> 100 µM (inactive),> 100 µM (inactive),> 100 µM (inactive),> 100 µM (inactive),> 100 µM (inactive),> 100 µM (inactive),,> 100 µM (inactive),> 100 µM (inactive),> 100 µM (inactive),> 100 µM (inactive),> 100 µM (inactive),> 100 µM (inactive),> 100 µM (inactive),> 100 µM (inactive),> 100 µM (inactive),> 100 µM (inactive),,> 100 µM (inactive),> 100 µM (inactive)
N#Cc1sc2c(c1OC(=O)c1ccc(Cl)cc1Cl)c(=O)n(-c1ccccc1)c(=S)n2-c1ccccc1,21.8 µM (inactive),,31.8 µM (inactive),26 µM (inactive),18.8 µM (inactive),19.2 µM (inactive),26.6 µM (inactive),19.7 µM (inactive),,1.12 µM (active),29 µM (inactive),17.1 µM (inactive),17 µM (inactive),33.6 µM (inactive),18.2 µM (inactive),18.2 µM (inactive),24 µM (inactive),19.2 µM (inactive),29.2 µM (inactive),
Cc1cc(C)c(S(=O)(=O)N2CCCN(S(=O)(=O)c3c(C)cc(C)cc3C)OCCCON(S(=O)(=O)c3c(C)cc(C)cc3C)CCCN(S(=O)(=O)c3c(C)cc(C)cc3C)OCCCO2)c(C)c1,,> 100 µM (inactive),> 100 µM (inactive),> 100 µM (inactive),> 100 µM (inactive),> 100 µM (inactive),,> 100 µM (inactive),> 100 µM (inactive),> 100 µM (inactive),> 100 µM (inactive),> 100 µM (inactive),> 100 µM (inactive),> 100 µM (inactive),> 100 µM (inactive),> 100 µM (inactive),> 100 µM (inactive),> 100 µM (inactive),> 100 µM (inactive),> 100 µM (inactive)
Cc1ccc(S(=O)(=O)N/N=C2\CC3C4C=CC3C2C4)cc1 (stereo not drawn),> 100 µM (inactive),> 100 µM (inactive),> 100 µM (inactive),> 100 µM (inactive),> 100 µM (inactive),> 100 µM (inactive),> 100 µM (inactive),> 100 µM (inactive),> 100 µM (inactive),> 100 µM (inactive),> 100 µM (inactive),> 100 µM (inactive),> 100 µM (inactive),> 100 µM (inactive),> 100 µM (inactive),> 100 µM (inactive),> 100 µM (inactive),> 100 µM (inactive),> 100 µM (inactive),
COc1ccc2c(c1)CC[C@@H]1C2CC[C@]2(C)C(=O)NC(=O)CC12 (stereo partly drawn),> 100 µM (inactive),> 100 µM (inactive),84.1 µM (inactive),> 100 µM (inactive),> 100 µM (inactive),> 100 µM (inactive),,> 100 µM (inactive),> 100 µM (inactive),> 100 µM (inactive),> 100 µM (inactive),25.2 µM (inactive),> 100 µM (inactive),> 100 µM (inactive),56.2 µM (inactive),> 100 µM (inactive),> 100 µM (inactive),> 100 µM (inactive),53.3 µM (inactive),
CCSC1=CC(Cc2ccc(OC)cc2)N(C(=O)OC)C1 (stereo not drawn),> 100 µM (inactive),97.7 µM (inactive),> 100 µM (inactive),> 100 µM (inactive),> 100 µM (inactive),51.4 µM (inactive),,81.5 µM (inactive),> 100 µM (inactive),52.6 µM (inactive),> 100 µM (inactive),34.3 µM (inactive),> 100 µM (inactive),> 100 µM (inactive),94.2 µM (inactive),> 100 µM (inactive),97.7 µM (inactive),36.3 µM (inactive),> 100 µM (inactive),
S=c1sc2c(S)nc(S)nc2n1-c1ccccc1,> 100 µM (inactive),> 100 µM (inactive),> 100 µM (inactive),> 100 µM (inactive),> 100 µM (inactive),> 100 µM (inactive),,> 100 µM (inactive),> 100 µM (inactive),41.5 µM (inactive),> 100 µM (inactive),> 100 µM (inactive),> 100 µM (inactive),> 100 µM (inactive),> 100 µM (inactive),> 100 µM (inactive),54.5 µM (inactive),> 100 µM (inactive),> 100 µM (inactive),
O=C(CC(C(=O)c1ccsc1)c1cccs1)c1ccccc1 (stereo not drawn),> 100 µM (inactive),,> 100 µM (inactive),> 100 µM (inactive),29.7 µM (inactive),> 100 µM (inactive),9.57 µM (inactive),> 100 µM (inactive),,70.1 µM (inactive),> 100 µM (inactive),> 100 µM (inactive),> 100 µM (inactive),> 100 µM (inactive),82.8 µM (inactive),69.2 µM (inactive),59 µM (inactive),78 µM (inactive),> 100 µM (inactive),
